# Measurements reported in patent US20100048533A1, “LESTAURTINIB CRYSTALLINE FORM 1, CRYSTALLINE LESTAURIMIB ANHYDRATE AND AMORPHOUS LESTAURIMIB” (ABBOTT LABORATORIES, priority 2005, published 2010).
# How the values were obtained:
# [1] = Solid-state stability of crystalline forms versus relative humidity; type: physicochemical; details: for RH above which the form converts to a higher hydrate: ambient temperature
# [2] = Dynamic moisture sorption gravimetry (DMSG) (hygroscopicity); type: physicochemical
# Procedure: Because moisture-mediated crystallization was not observed during RH levels between 5% and 10%, it was concluded that the solid at 5% RH was crystalline; and because the solid contained less than 0.5% water, it was also determined that it was an anhydrate.
# Dynamic moisture sorption gravimetry (DMSG) (hygroscopicity) data were obtained on a VTI Corporation model MB 300 G sorption microbalance using vacuum to control RH. The automated system controlled the RH and temperature to which each sample was exposed, while continuously recording sample weight changes. Sorption and desorption isotherms were performed at 25±0.1° C. with 5±1% RH step intervals from 0-95% RH. Samples of about 15-30 mg were dried under vacuum for up to 3 hours (approximate RH=0-1% RH) before each experiment. The weight loss observed during the drying period was used to estimate how tightly each sample held onto water. After the drying period, sorption isotherms started at 5% RH. A critical weight equilibrium of less than […] weight change over three 5 minutes periods was used to move to the next step. […] Meaning that any water present in the sample was surface water and not lattice water.
# [3] = Thermogravimetric analysis (TGA) moisture / weight loss; type: physicochemical; details: for weight loss: TGA
# Procedure: TGA data were obtained using a TA Instruments Model 3100 and 5200 Thermal Analysts with a Model 2950 Hi Res TGA module. TGA thermograms were acquired at a heating rate of 5° C. per minute, under nitrogen purge with a flow rate of about 40 mL per minute.
# [4] = Slurry of lestaurtinib forms in 200 proof ethanol for 48 hours, remaining form analyzed by PXRD; details: for Form After Mixing With Ethanol For 48 Hours: 200 proof ethanol, PXRD
# Procedure: The forms of lestaurtinib remaining were analyzed by PXRD to determine if any crystal form conversion had occurred.
# [5] = Solubility in 200 proof ethanol by HPLC (saturated solutions, two-day slurry); details: slurried two days
# Procedure: Solubility of Lestaurtinib Crystalline Form 1 and anhydrous lestaurtinib at 26° C. and 2-8° C. was determined using HPLC. Saturated solutions of the solid-state phase in ethanol (200 poof) were obtained by slurrying a sample in ethanol for two days at 26° C. and at 2-8° C. After slurrying, each solution was filtered through 0.45 μm micron filter and the level of CEP-701 was determined by HPLC.
smiles,measurement,setting,value
"C[C@]12O[C@H](C[C@]1(O)CO)n1c3ccccc3c3c4c(c5c6ccccc6n2c5c31)CNC4=O.O [Crystalline lestaurtinib monohydrate, crystalline lestaurtinib monohydrate]",RH above which the form converts to a higher hydrate,[1],above 40 % RH
same,factor by which ability to absorb water is reduced when ground,[1]; ground with mortar and pestle vs unground,about 6
"C[C@]12O[C@H](C[C@]1(O)CO)n1c3ccccc3c3c4c(c5c6ccccc6n2c5c31)CNC4=O [Crystalline lestaurtinib anhydrate, Crystalline Lestaurtinib Anhydrate]",RH above which the form converts to a higher hydrate,[1],above 5 % RH
same,water content of solid-state phase,"[2]; DMSG, 25° C., between 0% and 5% RH",less than 0.5%
"C[C@]12O[C@H](C[C@]1(O)CO)n1c3ccccc3c3c4c(c5c6ccccc6n2c5c31)CNC4=O [Amorphous, Amorphous Lestaurtinib]",weight loss,[3]; up to about 184° C.,5.56%
"C[C@]12O[C@H](C[C@]1(O)CO)n1c3ccccc3c3c4c(c5c6ccccc6n2c5c31)CNC4=O [hydrated, Crystalline Hydrated Lestaurtinib]",Form After Mixing With Ethanol For 48 Hours,[4]; 2-8° C.,1
same,Form After Mixing With Ethanol For 48 Hours,[4]; 26° C.,1
"CC#N.CC12OC(CC1(O)CO)n1c3ccccc3c3c4c(c5c6ccccc6n2c5c31)C(=O)NC4.CC12OC(CC1(O)CO)n1c3ccccc3c3c4c(c5c6ccccc6n2c5c31)C(=O)NC4.O (stereo not shown) [hemi: hydrate/acetonitrileate, Crystalline Lestaurtinib Hemihydrate Hemiacetonitrileate]",Form After Mixing With Ethanol For 48 Hours,[4]; 2-8° C.,1
same,Form After Mixing With Ethanol For 48 Hours,[4]; 26° C.,1
"CC12OC(CC1(O)CO)n1c3ccccc3c3c4c(c5c6ccccc6n2c5c31)C(=O)NC4 (stereo not shown) [Form I, Lestaurtinib Crystalline Form 1]",Solubility,[5]; 2-8° C.,2380 µg/mL
same,Solubility,[5]; 26° C.,2600 µg/mL
same,Form After Mixing With Ethanol For 48 Hours,[4]; 2-8° C.,1
same,Form After Mixing With Ethanol For 48 Hours,[4]; 26° C.,1
same,relative stability of crystalline form,[4]; ambient temperature and 2-8° C.,most stable crystalline form of lestaurtinib
same,solid state conversion,[1]; regardless of temperature or relative humidity,not known to undergo solid state conversion
same,hygroscopicity,[2],non-hygroscopic
same,nominal moisture uptake,"[2]; DMSG, 25° C.",about 0.2 % (w/w)
same,moisture uptake,"[2]; DMSG, 25° C., 0-95% RH",up to 0.4%
same,equilibrium moisture content (EMC),"[2]; DMSG, at moisture uptake up to about 0.4%",about 0.1 mole water per mole drug
same,equilibrium moisture content (EMC),"[2]; DMSG, at nominal moisture uptake of about 0.2%",about 0.05 mole water per mole drug
same,weight loss,[3]; up to about 100° C.,0.04%
same,moisture,[3]; determined by TGA,less than 0.05%
